Results taken from ChEMBL document CHEMBL4725279, “Design and synthesis of peptide-based chimeric molecules to induce degradation of the estrogen and androgen receptors” (Bioorg Med Chem, 2020).

How the values were obtained:
Type in all cases: cell-based
[1] = target: T1, von Hippel-Lindau disease tumor suppressor/Androgen receptor (Homo sapiens) (UniProt P10275+P40337); test: Protac activity at VHL/AR in human MCF7 cells assessed as induction of AR protein degradation incubated for 8 to 24 hrs by western blot analysis; conditions: time hrs 8-24
T1 sequence (P10275 whole entry, looked up): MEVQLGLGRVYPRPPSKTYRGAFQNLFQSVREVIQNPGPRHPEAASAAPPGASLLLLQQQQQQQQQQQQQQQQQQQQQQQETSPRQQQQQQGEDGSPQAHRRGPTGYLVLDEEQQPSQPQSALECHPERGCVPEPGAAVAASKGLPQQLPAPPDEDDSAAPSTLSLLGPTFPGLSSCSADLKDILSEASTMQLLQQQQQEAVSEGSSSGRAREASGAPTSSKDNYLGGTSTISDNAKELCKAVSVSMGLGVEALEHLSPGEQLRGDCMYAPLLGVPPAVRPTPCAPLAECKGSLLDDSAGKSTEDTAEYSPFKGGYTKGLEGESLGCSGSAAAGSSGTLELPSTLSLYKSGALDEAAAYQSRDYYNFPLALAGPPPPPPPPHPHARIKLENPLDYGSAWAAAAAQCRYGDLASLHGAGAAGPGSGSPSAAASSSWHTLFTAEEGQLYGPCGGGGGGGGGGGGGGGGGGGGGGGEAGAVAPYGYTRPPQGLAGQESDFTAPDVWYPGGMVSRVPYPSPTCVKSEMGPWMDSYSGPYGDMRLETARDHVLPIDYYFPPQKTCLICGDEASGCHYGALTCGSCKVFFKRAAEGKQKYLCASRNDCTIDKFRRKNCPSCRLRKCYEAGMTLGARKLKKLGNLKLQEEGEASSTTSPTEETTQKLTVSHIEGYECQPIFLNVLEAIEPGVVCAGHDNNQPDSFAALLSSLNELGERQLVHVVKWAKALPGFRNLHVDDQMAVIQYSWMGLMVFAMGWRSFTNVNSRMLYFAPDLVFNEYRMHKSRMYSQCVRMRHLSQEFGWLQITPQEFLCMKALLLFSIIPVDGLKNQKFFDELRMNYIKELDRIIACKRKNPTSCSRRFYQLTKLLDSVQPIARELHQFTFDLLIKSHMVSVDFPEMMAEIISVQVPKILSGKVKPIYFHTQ
T1 sequence (P40337 whole entry, looked up): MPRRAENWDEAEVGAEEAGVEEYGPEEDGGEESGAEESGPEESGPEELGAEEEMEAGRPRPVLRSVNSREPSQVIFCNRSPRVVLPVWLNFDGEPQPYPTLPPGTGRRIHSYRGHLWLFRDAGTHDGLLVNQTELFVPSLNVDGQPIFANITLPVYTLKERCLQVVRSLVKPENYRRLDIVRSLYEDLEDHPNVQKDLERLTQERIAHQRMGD

[2] = target: T2, von Hippel-Lindau disease tumor suppressor/Estrogen receptor (Homo sapiens) (UniProt P03372+P40337); test: Protac activity at VHL/ERalpha in human MCF7 cells assessed as induction of ERalpha protein degradation incubated for 8 to 24 hrs by western blot analysis; conditions: time hrs 8-24
T2 sequence (P03372 whole entry, looked up): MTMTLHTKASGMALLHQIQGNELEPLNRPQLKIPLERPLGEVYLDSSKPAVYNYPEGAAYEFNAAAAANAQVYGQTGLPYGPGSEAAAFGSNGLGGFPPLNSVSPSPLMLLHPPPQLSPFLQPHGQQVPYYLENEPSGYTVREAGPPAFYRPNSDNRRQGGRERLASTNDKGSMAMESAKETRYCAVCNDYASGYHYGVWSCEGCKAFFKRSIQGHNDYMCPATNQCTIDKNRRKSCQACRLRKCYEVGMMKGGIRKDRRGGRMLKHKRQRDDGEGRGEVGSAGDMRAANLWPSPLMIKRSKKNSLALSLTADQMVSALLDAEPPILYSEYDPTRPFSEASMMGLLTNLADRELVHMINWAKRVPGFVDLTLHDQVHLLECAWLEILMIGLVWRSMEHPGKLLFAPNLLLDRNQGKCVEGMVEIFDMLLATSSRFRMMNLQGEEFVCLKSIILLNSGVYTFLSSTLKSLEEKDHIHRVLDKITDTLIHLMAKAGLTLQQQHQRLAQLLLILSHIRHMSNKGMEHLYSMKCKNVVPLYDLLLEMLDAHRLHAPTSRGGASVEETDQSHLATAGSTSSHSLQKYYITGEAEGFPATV
T2 sequence (P40337 whole entry, looked up): as the sequence (P40337 whole entry, looked up) above

[3] = target: T1, von Hippel-Lindau disease tumor suppressor/Androgen receptor (Homo sapiens); test: Protac activity at VHL/AR in human MCF7 cells assessed as induction of AR protein degradation by measuring AR protein level at 5 uM incubated for 8 hrs by western blot analysis relative to lamin B
[4] = target: T1, von Hippel-Lindau disease tumor suppressor/Androgen receptor (Homo sapiens); test: Protac activity at VHL/AR in human MCF7 cells assessed as induction of AR protein degradation by measuring AR protein level at 10 uM incubated for 8 hrs by western blot analysis relative to lamin B
[5] = target: T1, von Hippel-Lindau disease tumor suppressor/Androgen receptor (Homo sapiens); test: Protac activity at VHL/AR in human MCF7 cells assessed as induction of AR protein degradation by measuring AR protein level at 20 uM incubated for 8 hrs by western blot analysis relative to lamin B
[6] = target: T2, von Hippel-Lindau disease tumor suppressor/Estrogen receptor (Homo sapiens); test: Protac activity at VHL/ERalpha in human MCF7 cells assessed as induction of ERalpha protein degradation by measuring ERalpha protein level at 5 uM incubated for 8 hrs by western blot analysis relative to lamin B
[7] = target: T2, von Hippel-Lindau disease tumor suppressor/Estrogen receptor (Homo sapiens); test: Protac activity at VHL/ERalpha in human MCF7 cells assessed as induction of ERalpha protein degradation by measuring ERalpha protein level at 10 uM incubated for 8 hrs by western blot analysis relative to lamin B
[8] = target: T2, von Hippel-Lindau disease tumor suppressor/Estrogen receptor (Homo sapiens); test: Protac activity at VHL/ERalpha in human MCF7 cells assessed as induction of ERalpha protein degradation by measuring ERalpha protein level at 20 uM incubated for 8 hrs by western blot analysis relative to lamin B
[9] = target: T1, von Hippel-Lindau disease tumor suppressor/Androgen receptor (Homo sapiens); test: Protac activity at VHL/AR in human MCF7 cells assessed as induction of AR protein degradation by measuring AR protein level at 5 uM incubated for 24 hrs by western blot analysis relative to lamin B
[10] = target: T1, von Hippel-Lindau disease tumor suppressor/Androgen receptor (Homo sapiens); test: Protac activity at VHL/AR in human MCF7 cells assessed as induction of AR protein degradation by measuring AR protein level at 10 uM incubated for 24 hrs by western blot analysis relative to lamin B
[11] = target: T1, von Hippel-Lindau disease tumor suppressor/Androgen receptor (Homo sapiens); test: Protac activity at VHL/AR in human MCF7 cells assessed as induction of AR protein degradation by measuring AR protein level at 20 uM incubated for 24 hrs by western blot analysis relative to lamin B
[12] = target: T2, von Hippel-Lindau disease tumor suppressor/Estrogen receptor (Homo sapiens); test: Protac activity at VHL/ERalpha in human MCF7 cells assessed as induction of ERalpha protein degradation by measuring ERalpha protein level at 5 uM incubated for 24 hrs by western blot analysis relative to lamin B
[13] = target: T2, von Hippel-Lindau disease tumor suppressor/Estrogen receptor (Homo sapiens); test: Protac activity at VHL/ERalpha in human MCF7 cells assessed as induction of ERalpha protein degradation by measuring ERalpha protein level at 10 uM incubated for 24 hrs by western blot analysis relative to lamin B
[14] = target: T2, von Hippel-Lindau disease tumor suppressor/Estrogen receptor (Homo sapiens); test: Protac activity at VHL/ERalpha in human MCF7 cells assessed as induction of ERalpha protein degradation by measuring ERalpha protein level at 20 uM incubated for 24 hrs by western blot analysis relative to lamin B
[15] = target: T3, von Hippel-Lindau disease tumor suppressor/Aryl hydrocarbon receptor (Homo sapiens, UniProt P35869+P40337); test: Protac activity at VHL/AhR in human MCF7 cells assessed as induction of AhR protein degradation by measuring AhR protein level at 5 uM incubated for 8 hrs by western blot analysis relative to lamin B; conditions: mcf7, 8 h
T3 sequence (P35869 whole entry): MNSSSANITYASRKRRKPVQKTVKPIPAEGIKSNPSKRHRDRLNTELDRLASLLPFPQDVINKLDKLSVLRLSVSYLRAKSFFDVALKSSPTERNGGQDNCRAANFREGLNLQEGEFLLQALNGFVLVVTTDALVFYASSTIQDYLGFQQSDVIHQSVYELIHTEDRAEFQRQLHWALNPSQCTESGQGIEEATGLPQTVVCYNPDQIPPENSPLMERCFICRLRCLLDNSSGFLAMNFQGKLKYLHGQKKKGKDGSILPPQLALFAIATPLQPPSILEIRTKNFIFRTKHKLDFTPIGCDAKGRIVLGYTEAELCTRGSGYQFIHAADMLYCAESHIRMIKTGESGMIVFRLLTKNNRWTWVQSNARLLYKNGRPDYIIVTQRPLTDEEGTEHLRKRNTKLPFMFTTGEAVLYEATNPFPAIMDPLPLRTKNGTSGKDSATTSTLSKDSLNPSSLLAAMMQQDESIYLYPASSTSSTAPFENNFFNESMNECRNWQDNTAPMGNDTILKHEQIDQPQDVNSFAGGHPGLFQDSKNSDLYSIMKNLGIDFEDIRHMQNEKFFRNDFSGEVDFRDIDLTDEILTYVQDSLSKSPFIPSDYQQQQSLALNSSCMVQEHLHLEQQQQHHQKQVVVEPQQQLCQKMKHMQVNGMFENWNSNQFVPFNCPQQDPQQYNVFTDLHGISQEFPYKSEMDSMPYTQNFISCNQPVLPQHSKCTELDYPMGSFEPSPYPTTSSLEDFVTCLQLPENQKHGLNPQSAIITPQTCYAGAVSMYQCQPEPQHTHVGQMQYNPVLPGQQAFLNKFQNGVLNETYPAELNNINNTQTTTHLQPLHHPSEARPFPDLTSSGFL
T3 sequence (P40337 whole entry): as the sequence (P40337 whole entry, looked up) above

[16] = target: T3, von Hippel-Lindau disease tumor suppressor/Aryl hydrocarbon receptor; test: Protac activity at VHL/AhR in human MCF7 cells assessed as induction of AhR protein degradation by measuring AhR protein level at 10 uM incubated for 8 hrs by western blot analysis relative to lamin B; conditions: mcf7, 8 h
[17] = target: T3, von Hippel-Lindau disease tumor suppressor/Aryl hydrocarbon receptor; test: Protac activity at VHL/AhR in human MCF7 cells assessed as induction of AhR protein degradation by measuring AhR protein level at 20 uM incubated for 8 hrs by western blot analysis relative to lamin B; conditions: mcf7, 8 h
[18] = target: T3, von Hippel-Lindau disease tumor suppressor/Aryl hydrocarbon receptor; test: Protac activity at VHL/AhR in human MCF7 cells assessed as induction of AhR protein degradation by measuring AhR protein level at 5 uM incubated for 24 hrs by western blot analysis relative to lamin B; conditions: mcf7, 24 h
[19] = target: T3, von Hippel-Lindau disease tumor suppressor/Aryl hydrocarbon receptor; test: Protac activity at VHL/AhR in human MCF7 cells assessed as induction of AhR protein degradation by measuring AhR protein level at 10 uM incubated for 24 hrs by western blot analysis relative to lamin B; conditions: mcf7, 24 h
[20] = target: T3, von Hippel-Lindau disease tumor suppressor/Aryl hydrocarbon receptor; test: Protac activity at VHL/AhR in human MCF7 cells assessed as induction of AhR protein degradation by measuring AhR protein level at 20 uM incubated for 24 hrs by western blot analysis relative to lamin B; conditions: mcf7, 24 h
[21] = target: T1, von Hippel-Lindau disease tumor suppressor/Androgen receptor (Homo sapiens); test: Protac activity at VHL/AR in human MCF7 cells assessed as induction of AR protein degradation by measuring AR protein level at 20 uM incubated for 8 hrs in presence of proteasome inhibitor, MG132 by western blot analysis relative to lamin B
[22] = target: T1, von Hippel-Lindau disease tumor suppressor/Androgen receptor (Homo sapiens); test: Protac activity at VHL/AR in human MCF7 cells assessed as induction of AR protein degradation by measuring AR protein level at 20 uM incubated for 8 hrs in presence of ubiquitin activating inhibitor MLN7243 by western blot analysis relative to lamin B
[23] = target: T2, von Hippel-Lindau disease tumor suppressor/Estrogen receptor (Homo sapiens); test: Protac activity at VHL/ERalpha in human MCF7 cells assessed as induction of ERalpha protein degradation by measuring ERalpha protein level at 20 uM incubated for 8 hrs in presence of proteasome inhibitor, MG132 by western blot analysis relative to lamin B
[24] = target: T2, von Hippel-Lindau disease tumor suppressor/Estrogen receptor (Homo sapiens); test: Protac activity at VHL/ERalpha in human MCF7 cells assessed as induction of ERalpha protein degradation by measuring ERalpha protein level at 20 uM incubated for 8 hrs in presence of ubiquitin activating inhibitor MLN7243 by western blot analysis relative to lamin B
[25] = target: T3, von Hippel-Lindau disease tumor suppressor/Aryl hydrocarbon receptor; test: Protac activity at VHL/AhR in human MCF7 cells assessed as induction of AhR protein degradation by measuring AhR protein level at 20 uM incubated for 8 hrs in presence of proteasome inhibitor, MG132 by western blot analysis relative to lamin B; conditions: mcf7, 8 h
[26] = target: T3, von Hippel-Lindau disease tumor suppressor/Aryl hydrocarbon receptor; test: Protac activity at VHL/AhR in human MCF7 cells assessed as induction of AhR protein degradation by measuring AhR protein level at 20 uM incubated for 8 hrs in presence of ubiquitin activating inhibitor MLN7243 by western blot analysis relative to lamin B; conditions: mcf7, 8 h
[27] = target: T1, von Hippel-Lindau disease tumor suppressor/Androgen receptor (Homo sapiens); test: Protac activity at VHL/AR in VHL siRNA-transfected human MCF7 cells assessed as induction of AR protein degradation by measuring AR protein level at 20 uM incubated for 8 hrs by western blot analysis relative to lamin B
[28] = target: T2, von Hippel-Lindau disease tumor suppressor/Estrogen receptor (Homo sapiens); test: Protac activity at VHL/ERalpha in VHL siRNA-transfected human MCF7 cells assessed as induction of ERalpha protein degradation by measuring ERalpha protein level at 20 uM incubated for 8 hrs by western blot analysis relative to lamin B

Activity [1]: Dose-dependent effect | Activity [2]: Dose-dependent effect | Activity [3]: 92% | Activity [4]: 75% | Activity [5]: 54% | Activity [6]: 93% | Activity [7]: 84% | Activity [8]: 64% | Activity [9]: 97% | Activity [10]: 103% | Activity [11]: 90% | Activity [12]: 86% | Activity [13]: 76% | Activity [14]: 57% | Activity [15]: 84% | Activity [16]: 105% | Activity [17]: 105% | Activity [18]: 83% | Activity [19]: 100% | Activity [20]: 97% | Activity [21]: 97% | Activity [22]: 102% | Activity [23]: 92% | Activity [24]: 108% | Activity [25]: 113% | Activity [26]: 101% | Activity [27]: 98% | Activity [28]: 84%
Structure (SMILES): CC[C@H](C)[C@@H]1NC(=O)[C@H](NC(=O)[C@@H](N)CCCCNC(=O)CCCCC(=O)NCCOCCOCCOCC(=O)N[C@H](C(=O)N2C[C@H](O)C[C@H]2C(=O)NCc2ccc(-c3scnc3C)cc2)C(C)(C)C)CSSC[C@@H](C(=O)N[C@@H](CCCNC(=N)N)C(=O)N[C@@H](CC(C)(C)C)C(=O)N[C@@H](CC(C)C)C(=O)N[C@@H](CCC(N)=O)C(=O)NCC(=O)NCC(=O)NCC(=O)N[C@@H](CCCNC(=N)N)C(=O)N[C@@H](CCCNC(=N)N)C(=O)N[C@@H](CCCNC(=N)N)C(=O)N[C@@H](CCCNC(=N)N)C(=O)N[C@@H](CCCNC(=N)N)C(=O)N[C@@H](CCCNC(=N)N)C(=O)N[C@@H](CCCNC(=N)N)C(N)=O)NC(=O)[C@H](CC(C)C)NC1=O
